Assay results from ChEMBL document CHEMBL1201862, “PubChem BioAssay data set” (2004).
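Step 1: Grow cells in 96-well plates. Step 2: Expose to compound for 48 hours at 5 concentrations. Step 3: Interpolate endpoints linearly; if unreached, use highest concentration. The concentration for 50% growth inhibition is given as GI50.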 Calls of active or inactive are those of the source. Rule as the data show it: active = GI50 up to about 1.1 µM and inactive = higher.

Experiments:
Experiment in all cases: NCI anticancer screen, dose series, 48 h
DLD-1 = tested on: DLD-1
DMS-114 = tested on: DMS-114
HOP-18 = tested on: HOP-18
KM-20L2 = tested on: KM-20L2
LXFL 529 = tested on: LXFL 529
M19-MEL = tested on: M19-MEL
RXF 631 = tested on: RXF 631
SNB-78 = tested on: SNB-78
XF498 = tested on: XF498

| SMILES | GI50 (DLD-1) | GI50 (DMS-114) | GI50 (HOP-18) | GI50 (KM-20L2) | GI50 (LXFL 529) | GI50 (M19-MEL) | GI50 (RXF 631) | GI50 (SNB-78) | GI50 (XF498) |
| --- | --- | --- | --- | --- | --- | --- | --- | --- | --- |
| [O-][n+]1c2cc(CBr)c(CBr)cc2[n+]([O-])c2c(O)cccc21 | 1.41 µM (inactive) | 1.69 µM (inactive) | 2.39 µM (inactive) | 3.07 µM (inactive) | 1.56 µM (inactive) | 1.73 µM (inactive) | 3.15 µM (inactive) | 1.94 µM (inactive) | 2.35 µM (inactive) |
| COc1ccccc1OCC(COC(=O)Nc1ccc(C)cc1)OC(=O)Nc1ccc(C)cc1 (configuration not stated) | 16 µM (inactive) | 14.7 µM (inactive) | 18.4 µM (inactive) | 23.1 µM (inactive) | 27.1 µM (inactive) |  | 19.4 µM (inactive) | 26.7 µM (inactive) |  |
| CC1(C(=O)O)CCC[C@@]2(C)C1CC[C@@]1(C)c3cocc3CCC21 (some centres not stated) | > 100 µM (inactive) | > 100 µM (inactive) | > 100 µM (inactive) | > 100 µM (inactive) | > 100 µM (inactive) | > 100 µM (inactive) | > 100 µM (inactive) | > 100 µM (inactive) | > 100 µM (inactive) |
| CN(C)CCN1C(=O)c2cccc3cc([N+](=O)[O-])cc(c23)C1=O [MITONAFIDE] | 0.873 µM (active) | 0.223 µM (active) | 0.652 µM (active) | 0.405 µM (active) | 0.682 µM (active) | 0.377 µM (active) | 0.171 µM (active) | 2 µM (inactive) | 0.303 µM (active) |
| NC(CSC(c1ccccc1)(c1ccccc1)c1ccccc1)C(=O)O (configuration not stated) | 0.7 µM (active) |  | 4.14 µM (inactive) | 1.82 µM (inactive) | 7.76 µM (inactive) | 3.19 µM (inactive) |  | 2.61 µM (inactive) |  |
| CC1=CCN(c2ccccn2)OC1c1ccccc1 (configuration not stated) | > 100 µM (inactive) | > 100 µM (inactive) | > 100 µM (inactive) | > 100 µM (inactive) | > 100 µM (inactive) | > 100 µM (inactive) | > 100 µM (inactive) | > 100 µM (inactive) | > 100 µM (inactive) |
| CC1/C=C/[C@@]2(C)CCC(C(C)(C)O)C2C(O)C[C@](C)(O)/C=C/C1 (some centres not stated) | > 100 µM (inactive) | > 100 µM (inactive) | > 100 µM (inactive) | > 100 µM (inactive) | > 100 µM (inactive) |  |  | > 100 µM (inactive) | > 100 µM (inactive) |
| COC(=O)/C(=N\N)C(C(=O)C(=O)Nc1nnc(S)[nH]1)c1nc2ccc([N+](=O)[O-])cc2nc1O (configuration not stated) | > 100 µM (inactive) | > 100 µM (inactive) | > 100 µM (inactive) | > 100 µM (inactive) | > 100 µM (inactive) | > 100 µM (inactive) | > 100 µM (inactive) | > 100 µM (inactive) |  |
| C[N+](C)(C)CC(=O)N/N=C(/Cc1nc2ccc(Cl)cc2nc1O)C1=NS(=O)(=O)c2cc(S(N)(=O)=O)c(Cl)cc2N1 | > 100 µM (inactive) | > 100 µM (inactive) |  | > 100 µM (inactive) |  | > 100 µM (inactive) |  |  |  |
| O=c1[nH]nc(-c2ccccc2)c(-c2ccccc2)c1-n1nc(-c2ccccc2)c2ccccc2c1=O | 76.7 µM (inactive) |  | > 100 µM (inactive) |  | 46.8 µM (inactive) | > 100 µM (inactive) |  | > 100 µM (inactive) |  |
| O=S(=O)(c1ccccc1)C1CN(Cc2ccccc2)CCN(Cc2ccccc2)C1 | 12.1 µM (inactive) | 10 µM (inactive) |  | 35.2 µM (inactive) | 11.3 µM (inactive) | 14.4 µM (inactive) |  |  | 18.8 µM (inactive) |
| COc1ccc(NC(=O)CC(=O)n2nc(-c3ccccc3)c(/N=N/c3ccc(C)cc3)c2-c2ccccc2)cc1 | > 79.3 µM (inactive) | > 49.5 µM (inactive) | 24.3 µM (inactive) | > 78.2 µM (inactive) | 40.8 µM (inactive) | 28.9 µM (inactive) | 54.5 µM (inactive) | 20.8 µM (inactive) | 12.4 µM (inactive) |
| O=C1N=C2Sc3ccc4ccccc4c3N2C1=O | 31.1 µM (inactive) | 39.7 µM (inactive) | 15 µM (inactive) | 25.4 µM (inactive) | 18.7 µM (inactive) | 36.1 µM (inactive) | 20.8 µM (inactive) | 26.4 µM (inactive) | 19.2 µM (inactive) |
| CCOc1ccccc1NC(=O)C(=O)C(C(=O)c1ccc2ccccc2c1)C1OC(=O)c2ccccc21 (configuration not stated) | 15.2 µM (inactive) | 9.62 µM (inactive) | 16.6 µM (inactive) | 28.3 µM (inactive) | 5.21 µM (inactive) |  | 6.18 µM (inactive) | 11.6 µM (inactive) |  |
| Cc1ccc(NC(=O)C(=O)C(C(=O)/C=C/c2ccccc2)C2OC(=O)c3ccccc32)c(C)c1 (configuration not stated) | > 100 µM (inactive) | > 100 µM (inactive) |  | > 100 µM (inactive) | > 100 µM (inactive) | > 100 µM (inactive) | > 100 µM (inactive) | > 100 µM (inactive) | > 100 µM (inactive) |
| O=C1OC2C=CC1C1(CCOC1=O)C2 (configuration not stated) | > 100 µM (inactive) | > 100 µM (inactive) | > 100 µM (inactive) | > 100 µM (inactive) | > 100 µM (inactive) | > 100 µM (inactive) |  |  | > 100 µM (inactive) |
| CCCCCCCCCCCCCC(=O)OCC1OC(OC)C(NC(=O)N(CCCl)N=O)C(O)C1O (configuration not stated) | 20.8 µM (inactive) | 18.5 µM (inactive) | > 100 µM (inactive) | 21 µM (inactive) | 16.3 µM (inactive) |  | 20.9 µM (inactive) | 25.5 µM (inactive) | 15.9 µM (inactive) |
| COc1cc2c(c(OC)c1OC)-c1ccc(SC)c(=O)cc1[C@@H](NCc1cccc([N+](=O)[O-])c1)CC2 | < 0.01 µM (active) | < 0.01 µM (active) | > 100 µM (inactive) | < 0.01 µM (active) | < 0.01 µM (active) | < 0.01 µM (active) | < 0.01 µM (active) | < 0.01 µM (active) | < 0.01 µM (active) |
| Nc1nc[n+](Cc2ccccc2)c2ncn(Cc3ccccc3)c12 | 80.2 µM (inactive) |  | > 100 µM (inactive) | 55.2 µM (inactive) | > 100 µM (inactive) | > 100 µM (inactive) |  | 75 µM (inactive) |  |
| O=C1/C(=C\c2ccccc2)c2ccccc2N1/N=C\c1ccccc1 | 59 µM (inactive) | > 100 µM (inactive) | > 100 µM (inactive) | > 100 µM (inactive) |  | 97.7 µM (inactive) |  | > 100 µM (inactive) | > 100 µM (inactive) |
| O=C(Nc1nnc(S)[nH]1)C(=O)C1C(=O)Nc2ccccc2[S+]1[O-] (configuration not stated) |  | > 100 µM (inactive) | > 100 µM (inactive) | > 100 µM (inactive) | > 100 µM (inactive) | > 100 µM (inactive) | > 100 µM (inactive) |  |  |
| O=C1NC(=S)NC(=O)C1=CC1CC1 | > 100 µM (inactive) | > 100 µM (inactive) | > 100 µM (inactive) | > 100 µM (inactive) | > 100 µM (inactive) | > 100 µM (inactive) |  | > 100 µM (inactive) | > 100 µM (inactive) |
| c1ccc(SC(CCCCC(Sc2ccccc2)Sc2ccccc2)Sc2ccccc2)cc1 | > 100 µM (inactive) | > 100 µM (inactive) |  | > 100 µM (inactive) | > 100 µM (inactive) | > 100 µM (inactive) | > 100 µM (inactive) | > 100 µM (inactive) | > 100 µM (inactive) |
| COC1C(O)C(C)OC(OC2C(Oc3cccc4c(O)c5c(=O)oc6ccc(C)c7c(=O)oc(c34)c5c67)OC(C)C(O)C2O)C1O (configuration not stated) | 1.26 µM (inactive) | 0.918 µM (active) | 2.45 µM (inactive) | 2.52 µM (inactive) |  | 1.04 µM (active) |  | 2 µM (inactive) | 0.824 µM (active) |
| CCOC(=O)C1C(=O)c2cccc(OC)c2C2COC(=O)N12 (configuration not stated) | > 100 µM (inactive) | > 100 µM (inactive) | > 100 µM (inactive) | > 100 µM (inactive) | > 100 µM (inactive) | > 100 µM (inactive) | > 100 µM (inactive) |  | > 100 µM (inactive) |
| COc1ccc2oc(-c3ccc(OC)c(OC)c3OC)cc(=O)c2c1 | 49.7 µM (inactive) | 31.8 µM (inactive) |  | 24 µM (inactive) | 39.4 µM (inactive) | 57 µM (inactive) |  |  | 39.7 µM (inactive) |
